US9969742B2, “Imidazotriazinone compounds” (Ironwood Pharmaceuticals, Inc., priority 2012, dated 2018)
Where two headings read alike, the source gives them in different places.

How the values were obtained:
Type in all cases: biochemical
PDE9A2 = target: T1, PDE9A2 (Homo sapiens, UniProt O76083); assay: Phosphodiesterase enzyme screening assay, PDE9A2; settings: read-out: Band (PDE9A2 IC50)
T1 construct: purchased Reaction Biology Corporation, Malvern, Pa
Summary of the method: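 Microfluidic mobility-shift assay; values from quadruplicate wells relative to controls. Conditions: 4.0 μM cGMP, 5 mM MgCl2, pH 7.5 HEPES, 1 h R.T., EDTA stop.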

PDE1A = target: T2, PDE1A (Homo sapiens, UniProt P54750); assay: Phosphodiesterase enzyme screening assay, PDE1A
T2 construct: purchased Reaction Biology Corporation, Malvern, Pa
T2 sequence (P54750 whole entry): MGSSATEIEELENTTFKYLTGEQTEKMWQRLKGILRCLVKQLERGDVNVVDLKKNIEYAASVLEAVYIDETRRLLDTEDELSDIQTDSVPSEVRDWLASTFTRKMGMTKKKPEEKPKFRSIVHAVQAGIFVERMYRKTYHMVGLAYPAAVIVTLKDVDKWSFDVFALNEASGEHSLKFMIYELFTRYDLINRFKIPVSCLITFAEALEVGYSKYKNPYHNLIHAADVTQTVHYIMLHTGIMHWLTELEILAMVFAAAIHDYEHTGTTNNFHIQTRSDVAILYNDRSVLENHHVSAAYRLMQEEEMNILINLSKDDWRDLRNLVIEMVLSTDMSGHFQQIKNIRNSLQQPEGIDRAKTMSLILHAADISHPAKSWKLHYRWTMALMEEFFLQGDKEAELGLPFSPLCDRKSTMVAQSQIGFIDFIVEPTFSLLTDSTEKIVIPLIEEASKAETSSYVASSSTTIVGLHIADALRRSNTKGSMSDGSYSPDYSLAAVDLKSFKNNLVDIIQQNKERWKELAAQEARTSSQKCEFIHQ
From the text: (§1) Compounds of the invention were screened against PDE1A, PDE1B, PDE2A, PDE3A, PDE3B, PDE4A1A, PDE4B1, PDE4D3, PDE5A1, PDE6C, PDE7A, PDE8A1, PDE9A2, PDE10A2 AND PDE11A isoforms of the phosphodiesterase enzyme to determine activity and overall selectivity through comparative analysis. […] Where 8-methoxy-IBMX and Zaprinast were used as reference inhibitors.
(§2) The phosphodiesterase enzyme isoforms were obtained from a commercial retailer (Reaction Biology Corporation, Malvern, Pa.) for use in the instant screening assay.
(§3) The analysis was completed using the Caliper LabChip 3000 and a 12-sipper LabChip. LabChip assays are separations-based, meaning that the product and substrate are electrophoretically separated, thereby minimizing interferences and yielding the highest data quality available on any screening platform. […] High Z′ values, few false positives, few false negatives and analytical quality reproducibility are the reasons cited for the increasing reliance on the LabChip assays.
(§4) The off-chip incubation mobility-shift phosphodiesterase assay uses a microfluidic chip to measure the conversion of a fluorescent cyclic AMP substrate to a 5′-AMP product, or a cyclic GMP substrate to a 5′-GMP product. The reaction mixture, from a microtiter plate well, is introduced through a capillary sipper onto the chip, where the fluorescent substrate and product are separated by electrophoresis and detected via laser-induced fluorescence. […] The precision of microfluidics allows researchers to detect subtle interactions between drug candidates and therapeutic targets.
(§5) Reactions were carried out in 100 mM HEPES (pH 7.5), 5 mM MgCl2, 1 mM DTT, 0.003% Brij, 4.0 μM cGMP substrate. The reaction was started by addition of cGMP or cAMP and incubated for 1 hour at R.T. The reaction was terminated by the addition of stop buffer containing 100 mM HEPES (pH 7.5), 15 mM EDTA, 0.015% Brij-35, 5% DMSO. Cyclic AMP/GMP substrate and 5′-AMP/5′-GMP product were separated by charge using electrophoretic mobility shift. Product formed was compared to control wells to determine inhibition or enhancement of enzyme activity.
(§6) Data points were averages of quadruplicate wells and error bars represented the SEM for each point.

PDE1B = target: T3, PDE1B (Homo sapiens, UniProt Q01064); assay: Phosphodiesterase enzyme screening assay, PDE1B
T3 construct: purchased Reaction Biology Corporation, Malvern, Pa
T3 sequence (Q01064 whole entry): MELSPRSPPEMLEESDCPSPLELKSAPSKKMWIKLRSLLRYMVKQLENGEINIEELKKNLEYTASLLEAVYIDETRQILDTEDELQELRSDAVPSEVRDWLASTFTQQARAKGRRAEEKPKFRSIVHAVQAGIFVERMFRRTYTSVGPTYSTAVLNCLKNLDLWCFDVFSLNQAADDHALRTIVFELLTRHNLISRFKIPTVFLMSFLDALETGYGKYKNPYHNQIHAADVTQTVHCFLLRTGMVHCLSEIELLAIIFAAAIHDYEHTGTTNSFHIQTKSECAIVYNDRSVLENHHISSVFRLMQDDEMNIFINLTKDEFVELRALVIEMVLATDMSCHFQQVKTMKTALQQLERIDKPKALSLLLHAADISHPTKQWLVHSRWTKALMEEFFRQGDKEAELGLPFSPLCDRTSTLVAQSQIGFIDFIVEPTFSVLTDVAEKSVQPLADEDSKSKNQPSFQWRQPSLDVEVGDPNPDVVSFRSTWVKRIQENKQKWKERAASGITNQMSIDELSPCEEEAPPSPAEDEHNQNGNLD
From the text: as §1, §2, §3, §4, §5, §6

[1] = ratio of IC50 values, value greater than 1 indicates greater selectivity for PDE9A2
[2] = Table 1, ratio of IC50 values, value greater than 1 indicates greater selectivity for PDE9A2

T1 sequence (O76083 1-533 isoform O76083-2): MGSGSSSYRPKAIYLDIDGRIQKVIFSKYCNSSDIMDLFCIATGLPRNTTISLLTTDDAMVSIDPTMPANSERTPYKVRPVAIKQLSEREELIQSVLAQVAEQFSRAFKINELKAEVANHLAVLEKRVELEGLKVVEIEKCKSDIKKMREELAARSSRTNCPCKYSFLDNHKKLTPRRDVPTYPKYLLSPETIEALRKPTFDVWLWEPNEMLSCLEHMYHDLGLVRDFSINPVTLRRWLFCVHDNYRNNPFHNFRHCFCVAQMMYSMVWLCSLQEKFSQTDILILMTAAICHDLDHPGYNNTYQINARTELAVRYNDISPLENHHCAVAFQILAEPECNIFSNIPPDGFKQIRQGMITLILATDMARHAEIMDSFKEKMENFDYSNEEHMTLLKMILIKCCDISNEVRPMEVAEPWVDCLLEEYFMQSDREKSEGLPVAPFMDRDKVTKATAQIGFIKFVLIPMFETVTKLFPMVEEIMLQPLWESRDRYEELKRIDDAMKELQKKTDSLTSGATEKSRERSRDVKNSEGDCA

| SMILES | PDE1A selectivity (versus PDE9A2) (PDE1A; [2]) | PDE1B selectivity (versus PDE9A2) (PDE1B; [2]) | other results |
| --- | --- | --- | --- |
| CC1CN(Cc2ccc(Cl)cn2)CC1c1nn2c(C3CCOCC3)ncc2c(=O)[nH]1 (single isomer, unassigned; (+)) [(+)-2-((3,4-trans)-1-((5-chloropyridin-2-yl)methyl)-4-methylpyrrolidin-3-yl)-7-(tetrahydro-2H-pyran-4-yl)imidazo[5,1-f][1,2,4]triazin-4(3H)-one] |  |  | IC50 (PDE9A2; 4.0 μM cGMP substrate, 1 hour at R.T.): < 1000 nM; PDE1A selectivity (versus PDE9A2) (PDE1A; ratio of IC50 values PDE1A / PDE9A2, value greater than 1 = greater selectivity for PDE9A2): 107; PDE1B selectivity (versus PDE9A2) (PDE1B; ratio of IC50 values PDE1B / PDE9A2, value greater than 1 = greater selectivity for PDE9A2): 184 |
| CC1CN(Cc2cnn3ccccc23)CC1c1nn2c(C3CCOCC3)ncc2c(=O)[nH]1 (single isomer, unassigned; (+)) [(+)-2-((3,4-trans)-4-methyl-1-(pyrazolo[1,5-a]pyridin-3-ylmethyl)pyrrolidin-3-yl)-7-(tetrahydro-2H-pyran-4-yl)imidazo[5,1-f][1,2,4]triazin-4(3H)-one] |  |  | IC50 (PDE9A2): < 1000 nM; PDE1A selectivity (versus PDE9A2) (PDE1A; [1]): 3240; PDE1B selectivity (versus PDE9A2) (PDE1B; [1]): 1010 |
| CC1CN(Cc2cccc(F)c2)CC1c1nn2c(C3CCOCC3)ncc2c(=O)[nH]1 (single isomer, unassigned; (-)) [(−)-2-((3,4-trans)-1-(3-fluorobenzyl)-4-methylpyrrolidin-3-yl)-7-(tetrahydro-2H-pyran-4-yl)imidazo[5,1-f][1,2,4]triazin-4(3H)-one] | 1110 | 1140 |  |
| Cc1ccc(F)cc1-c1ncc2c(=O)[nH]c(C3CN(Cc4ccccc4)CC3C)nn12 (single isomer, unassigned; (+)) [(+)-2-((3,4-trans)-1-benzyl-4-methylpyrrolidin-3-yl)-7-(5-fl] [(+)-2-((3,4-trans)-1-benzyl-4-methylpyrrolidin-3-yl)-7-(5-fluoro-2-methylphenyl)imidazo[1,5-f][1,2,4]triazin-4(3H)-one] | 247 | 109 |  |
| Cc1ccc(Cl)cc1-c1ncc2c(=O)[nH]c(C3CN(Cc4ccccc4)CC3C)nn12 (single isomer, unassigned; (+)) [(+)-2-((3,4-trans)-1-benzyl-4-methylpyrrolidin-3-yl)-7-(5-chloro-2-methylphenyl)imidazo[5,1-f][1,2,4]triazin-4(3H)-one] | 276 | 142 |  |
| CC1CN(Cc2ncccn2)CC1c1nn2c(C3CCC(F)(F)CC3)ncc2c(=O)[nH]1 (single isomer, unassigned; (+)) [(+)-7-(4,4-difluorocyclohexyl)-2-((3,4-trans)-4-methyl-1-(pyrimidin-2-ylmethyl)pyrrolidin-3-yl)imidazo[5,1-f][1,2,4]triazin-4(3H)-one] | 165 | 313 |  |
| CC1CN(Cc2ccccc2)CC1c1nn2c(C3CCOCC3)ncc2c(=O)[nH]1 (single isomer, unassigned; (+)) [(+)-2-((3,4-trans)-1-benzyl-4-methylpyrrolidin-3-yl)-7-(tetr] [(+)-2-((3,4-trans)-1-benzyl-4-methylpyrrolidin-3-yl)-7-(tetrahydro-2H-pyran-4-yl)imidazo[1,5-f][1,2,4]triazin-4(3H)-one] | 5 | 5 |  |
| CC1CN(Cc2ccccc2)CC1c1nn2c(C3CCCOC3)ncc2c(=O)[nH]1 (single isomer, unassigned) [2-((3,4-trans)-1-benzyl-4-methylpyrrolidin-3-yl)-7-(tetrahydro-2H-pyran-3-yl)imidazo[5,1-f][1,2,4]triazin-4(3H)-one] | 28 | 38 |  |
| Cc1cc(F)ccc1-c1ncc2c(=O)[nH]c(C3CN(Cc4ncccn4)CC3C)nn12 (single isomer, unassigned; (-)) [(−)-7-(4-fluoro-2-methylphenyl)-2-((3,4-trans)-4-methyl-1-(pyrimidin-2-ylmethyl)pyrrolidin-3-yl)imidazo[5,1-f][1,2,4]triazin-4(3H)-one] | 132 | 175 |  |
